Target: T1, OST3 complex (Saccharomyces cerevisiae, UniProt P39007)
T1 construct: were purified separately from strains expressing only one type of complex; made in house; host or cells: Saccharomyces cerevisiae, BY4742-derived strain ost6::LEU2MX6 OST4-1D4::kanMX6 YEp352-OST3
Assay: In vitro glycosylation assay, kinetic parameters for synthetic LLOs, OST3 complex
Type: biochemical
From the text: Synthetic LLO substrates all have two GlcNAcs as the sugar moiety, followed by pyrophosphate and lipid moieties (−R) of variable stereochemistry and length, denoted by the carbon chain length. C10, (S)-citronellyl; C15, farnesyl; C20, (S)-citronellylneryl; C25, (S)-citronellylfarnesyl; C90, represents the natural yeast dolichol lipid tail structure where n = 15. Figure modified from Ramirez et al. 2017 ([42]). B, quantification of kinetic parameters for the synthetic LLOs. Reactions were performed with 0.1 μM purified OST3 complex, 25 μM peptide TAMRA-YANATS, and varying concentrations of the different synthetic LLOs. Glycopeptide product was measured by UPLC and turnover rates were determined from the linear initial phase of the reaction. The mean of three reactions is shown and the data were fitted by nonlinear regression according to the Michaelis–Menten formula (R^2 = 0.9842 (LLO C15), 0.9685 (LLO C20), 0.9261 (LLO C25)) using Prism. Error bars indicate standard deviations from the mean (n = 3).
Concentrations of reactive LLO analogs were determined by in vitro glycosylation (see below) by titrating varying amounts of LLO against a known amount of fluorescently labeled peptide. Concentrations of nonreactive LLO analogs were determined by in vitro glycosylation by titrating varying amounts of nonreactive LLO while using known amounts of both fluorescently labeled peptide and active LLO analog.
Reactions were performed in a total volume of 10 μl containing the specified amount of TAMRA-labeled peptide, synthetic LLO analog, 10 mM MnCl2, and purified OST after size-exclusion chromatography in purification buffer (50 mM Hepes, pH 7.5, 150 mM NaCl, 1 mM MgCl2, 1 mM MnCl2, 10% (v/v) glycerol, 0.03% (w/v) DDM, and 0.006% (w/v) CHS). The concentration of OST was calculated using the molecular weight of 280 kDa. The reaction mixture was preincubated at 30 °C for 5 min before adding the peptide to start the reaction that proceeded at 30 °C. Time points were taken such that the reaction was in the linear phase. […]
Samples were analyzed by reverse-phase chromatography using a UPLC Dionex UltiMate 3000 with an Accucore 150-C18 100 × 2.1 mm 2.6 μm column (Thermo Fisher Scientific). One microliter sample (2 pmol of peptide) was injected and measured by isocratic elution using a certain proportion of ACN (15% ACN for peptide TAMRA-DANYTK; 20% ACN for peptide TAMRA-YANATS) in 10 mM KPO4, pH 8.0 buffer so that the glycopeptide and peptide are fully separated and elute within 3 min at a constant flow rate of 0.7 ml/min, with a column temperature of 45 °C. The peptide and glycopeptide were detected through TAMRA fluorescence (excitation wavelength: 546 nm; emission wavelength: 579 nm).
The UPLC profiles were analyzed by integrating the peaks corresponding to the glycopeptide and peptide using Chromeleon 7 (Dionex) and calculating the amount of glycopeptide formed using the following equation, as previously described ([43]): [GP]=PeakareaGP/PeakareaP+PeakareaGP×[P]
[GP] is the concentration of glycopeptide, Peak areaGP/P is the area under the curves measured for the glycopeptide or peptide, respectively, and [P] is the concentration of peptide at the start of the reaction. […] Unless specified otherwise, turnover rates were determined from the initial rates of reaction by taking into account the enzyme concentration in the reaction. […]

`CC(=O)N[C@H]1[C@@H](OP(=O)(O)OP(=O)(O)OC/C=C(\C)CC/C=C(\C)CCC=C(C)C)O[C@H](CO)[C@@H](O[C@@H]2O[C@H](CO)[C@@H](O)[C@H](O)[C@H]2NC(C)=O)[C@@H]1O` [LLO C15] was tested, and the kcat/KM (0.1 μM purified OST3 complex, 25 μM TAMRA-YANATS) was 0.02 min^-1 μM^−s1, the “kcat (apparent)” value (0.1 μM purified OST3 complex, 25 μM TAMRA-YANATS, varying LLO (C15 5–200, C20 5–150, C25 2–50 μM), 30 °C, n = 3) was 0.0283 ± 0.0017 s⁻¹ and the Km (0.1 μM purified OST3 complex, 25 μM TAMRA-YANATS, varying LLO (C15 5–200, C20 5–150, C25 2–50 μM), 30 °C, n = 3, read-out: KM (apparent)) was 67.9 ± 6.7 µM. The “apparent LLO affinity, in words” value (OST3 complex, from apparent KM) was “bound much less efficiently”.

Reference: PMC8191290, “Substrate specificities and reaction kinetics of the yeast oligosaccharyltransferase isoforms” (The Journal of Biological Chemistry, 2021)
